molecular target: T1, human CXCR6 (Homo sapiens, UniProt O00574); test: Radioligand Binding Assay (125I-CXCL16 displacement); details: L1.2 cells stably transfected with human CXCR6 cDNA, 0.1 nM 125I-CXCL16, 4° C., three-hour incubation; read-out: Potency (IC50)
T1 construct: expressed in transfected cells
In short: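 Displacement of 0.1 nM 125I-CXCL16 from human CXCR6 stably expressed in L1.2 cells was measured after a 3 h, 4 °C incubation in HBSS with 0.1% BSA. Filter-bound cpm were counted, and IC50 values came from a 3-parameter nonlinear fit.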

T1 sequence (O00574 whole entry): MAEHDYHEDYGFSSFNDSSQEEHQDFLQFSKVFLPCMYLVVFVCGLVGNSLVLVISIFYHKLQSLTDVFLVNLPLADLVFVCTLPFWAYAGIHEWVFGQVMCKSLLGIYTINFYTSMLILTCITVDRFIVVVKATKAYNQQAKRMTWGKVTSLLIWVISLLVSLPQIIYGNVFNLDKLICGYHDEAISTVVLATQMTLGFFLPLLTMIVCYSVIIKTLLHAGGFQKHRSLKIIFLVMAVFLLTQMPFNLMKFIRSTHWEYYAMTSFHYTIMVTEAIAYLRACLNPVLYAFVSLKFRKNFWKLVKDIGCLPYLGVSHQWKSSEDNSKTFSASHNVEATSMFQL

IC50	Compound
2 to 20 µM	Cc1cc(NC(=O)c2ccn(C)n2)ccc1S(=O)(=O)Nc1cccc(C(F)(F)F)c1 [Example 1.001]
0.2 to 0.75 µM	CCOc1cc(NC(=O)[C@@H](NC(=O)OC(C)(C)C)c2ccccc2)ccc1S(=O)(=O)Nc1cccc(OC(F)(F)F)c1 [Example 1.429]
2 to 20 µM	COc1cc(NC(=O)[C@@H]2C=CCN2C)ccc1S(=O)(=O)Nc1cccc(C(F)(F)F)c1 [Example 1.194]
≤ 0.2 µM	CCOc1cc(NC(=O)[C@@H](O)Cc2ccccc2)ccc1S(=O)(=O)Nc1cccc(OC(F)(F)F)c1 [Example 1.207]
2 to 20 µM	CC(=O)Nc1ccc(S(=O)(=O)Nc2cccc(C(F)(F)F)c2)c(OC(F)(F)F)c1 [Example 1.264]
2 to 20 µM	COCC1(C(=O)Nc2ccc(S(=O)(=O)Nc3cccc(C(F)(F)F)c3)c(C)c2)CC1 [Example 1.424]
≤ 0.2 µM	CCCOc1cc(NC(=O)[C@@H](CO)C(C)C)ccc1S(=O)(=O)Nc1cccc(OC(F)(F)F)c1 [Example 1.551]
≤ 0.2 µM	Cc1cc(NC(=O)[C@@H](O)C(C)C)ccc1S(=O)(=O)Nc1cccc(OC(F)(F)F)c1 [Example 1.322]
≤ 0.2 µM	CCOc1cc(NC(=O)[C@@H](O)C(C)C)ccc1S(=O)(=O)Nc1ccc(C)c(CC)c1 [Example 1.402]
0.75 to 2 µM	Cc1ccc(C(=O)Nc2ccc(S(=O)(=O)Nc3cccc(C(F)(F)F)c3)c(C)c2)cc1 [Example 1.251]
≤ 0.2 µM	COc1cc(NC(=O)[C@@H](CO)C(C)C)ccc1S(=O)(=O)Nc1cccc(OC(F)(F)F)c1 [Example 1.009]
≤ 0.2 µM	CCN[C@H](C(=O)Nc1ccc(S(=O)(=O)Nc2ccc(C)c(OC(F)(F)F)c2)c(OCC)c1)C(C)C [Example 1.296]
≤ 0.2 µM	CCOc1cc(NC(=O)c2cn[nH]c(=O)c2)ccc1S(=O)(=O)Nc1cccc(OC(F)(F)F)c1 [Example 1.529]
2 to 20 µM	COc1cc(NC(=O)[C@H]2CC[C@@H](OC)CC2)ccc1S(=O)(=O)Nc1cccc(C(F)(F)F)c1 [Example 1.371]
0.2 to 0.75 µM	COc1cc(NC(=O)C2CC3CCC32O)ccc1S(=O)(=O)Nc1cccc(C(F)(F)F)c1 (stereo not shown) [Example 1.035]
≤ 0.2 µM	CCOc1cc(NC(=O)C(O)Cc2ccccc2)ccc1S(=O)(=O)Nc1cccc(OC(F)(F)F)c1 (stereo not shown) [Example 1.182]
≤ 0.2 µM	COc1cc(NC(=O)[C@@H](O)C(C)C)ccc1S(=O)(=O)Nc1ccc(C)c(OC(F)(F)F)c1 [Example 1.557]
0.75 to 2 µM	COc1cc(NC(=O)C2CCCCO2)ccc1S(=O)(=O)Nc1cccc(C(F)(F)F)c1 (stereo not shown) [Example 1.572]
≤ 0.2 µM	CCOc1cc(NC(=O)[C@@H](O)C(C)C)ccc1S(=O)(=O)Nc1ccc(C)c(OC(F)(F)F)c1 [Example 1.205]
0.75 to 2 µM	Cc1cc(NC(=O)c2cnco2)ccc1S(=O)(=O)Nc1cccc(C(F)(F)F)c1 [Example 1.252]
≤ 0.2 µM	CCOC(=O)[C@H]1CC=CC[C@@H]1C(=O)Nc1ccc(S(=O)(=O)Nc2cccc(OC(F)(F)F)c2)c(OCC)c1 [Example 1.138]
0.75 to 2 µM	CCOc1cc(NC(=O)CC(C)(C)O)ccc1S(=O)(=O)Nc1cccc(OC(F)(F)F)c1 [Example 1.166]
0.2 to 0.75 µM	CCOc1cc(NC(=O)[C@@H](O)C(C)C)ccc1S(=O)(=O)Nc1cccc(OC(F)(F)F)c1F [Example 1.320]
0.2 to 0.75 µM	CC(C)c1cc(NC(=O)c2ccnn2C)ccc1S(=O)(=O)Nc1cccc(OC(F)(F)F)c1 [Example 1.456]

IC50	Compound
0.2 to 0.75 µM	CCOc1cc(NC(=O)[C@@H](CO)C(C)C)ccc1S(=O)(=O)Nc1ccc(Cl)cc1 [Example 1.044]
≤ 0.2 µM	CCOc1cc(NC(=O)[C@@H](O)C(C)C)ccc1S(=O)(=O)Nc1ccc(F)c(C(F)(F)F)c1 [Example 1.084]
0.2 to 0.75 µM	Cc1cc(NC(=O)c2ccno2)ccc1S(=O)(=O)Nc1cccc(C(F)(F)F)c1 [Example 1.067]
≤ 0.2 µM	CCOc1cc(NC(=O)C(CO)C2CCC2)ccc1S(=O)(=O)Nc1cccc(OC(F)(F)F)c1 (stereo not shown) [Example 1.376]
≤ 0.2 µM	CCOc1cc(NC(=O)[C@@H](NC(=O)C(F)(F)F)C(C)CC)ccc1S(=O)(=O)Nc1cccc(OC(F)(F)F)c1 (stereo partly shown) [Example 1.089]
≤ 0.2 µM	C=Cc1cc(NS(=O)(=O)c2ccc(NC(=O)[C@@H](CO)c3ccccc3)cc2OCC)ccc1C [Example 1.372]
≤ 0.2 µM	CCOc1cc(NC(=O)[C@H]2CC(C)=C(C)C[C@@H]2CO)ccc1S(=O)(=O)Nc1cccc(OC(F)(F)F)c1 [Example 1.250]
0.2 to 0.75 µM	Cc1cc(NC(=O)c2ccn(C)c(=O)c2)ccc1S(=O)(=O)Nc1cccc(OC(F)(F)F)c1 [Example 1.100]
0.2 to 0.75 µM	CCOc1cc(NC(=O)C2CCO[C@@H]2C)ccc1S(=O)(=O)Nc1cccc(OC(F)(F)F)c1 (mixture of isomers) [Example 1.137]
0.75 to 2 µM	COc1cc(NC(=O)C2C3CCC(C3)N2C(=O)OC(C)(C)C)ccc1S(=O)(=O)Nc1cccc(C(F)(F)F)c1 (stereo not shown) [Example 1.506]
2 to 20 µM	CC(C)Oc1cc(NC(=O)c2ccns2)ccc1S(=O)(=O)Nc1cccc(C(F)(F)F)c1 [Example 1.542]
≤ 0.2 µM	CCOc1cc(NC(=O)C(O)[C@@H](C)CC)ccc1S(=O)(=O)Nc1cccc(C(F)(F)F)c1 (stereo partly shown) [Example 1.390]
≤ 0.2 µM	COc1cc(NC(=O)c2ccnn2C)ccc1S(=O)(=O)Nc1ccc(Cl)c(OC(F)(F)F)c1 [Example 1.469]
0.2 to 0.75 µM	CCOc1cc(NC(=O)CC(C)(O)C(F)(F)F)ccc1S(=O)(=O)Nc1cccc(OC(F)(F)F)c1 (stereo not shown) [Example 1.512]
0.2 to 0.75 µM	CCOc1cc(NC(=O)[C@H]2CCOC[C@@H]2O)ccc1S(=O)(=O)Nc1cccc(OC(F)(F)F)c1 [Example 1.410]
≤ 0.2 µM	COc1cc(NC(=O)c2ccnn2C)ccc1S(=O)(=O)Nc1ccc(C)c(OC(F)(F)F)c1 [Example 1.151]
2 to 20 µM	COc1ccccc1C(=O)Nc1ccc(S(=O)(=O)Nc2cccc(C(F)(F)F)c2)c(OC)c1 [Example 1.294]
0.75 to 2 µM	COc1cc(NC(=O)C2CCCC2)ccc1S(=O)(=O)Nc1cccc(C(F)(F)F)c1 [Example 1.497]
≤ 0.2 µM	CCOc1cc(NC(=O)C2c3ccccc3CC2O)ccc1S(=O)(=O)Nc1cccc(OC(F)(F)F)c1 (stereo not shown) [Example 1.257]
0.2 to 0.75 µM	CCOc1cc(NC(=O)[C@@H](CO)C2CC2)ccc1S(=O)(=O)Nc1cccc(C(C)(C)C)c1 [Example 1.516]
0.2 to 0.75 µM	CCOc1cc(NC(=O)C(COC)C(=O)O)ccc1S(=O)(=O)Nc1cccc(OC(F)(F)F)c1 (stereo not shown) [Example 1.127]
≤ 0.2 µM	CCOc1cc(NC(=O)[C@@H](CO)C(C)C)ccc1S(=O)(=O)Nc1ccc(F)c(OC(F)(F)F)c1 [Example 1.288]
0.2 to 0.75 µM	CCOc1cc(NC(=O)[C@@H](O)C(C)C)ccc1S(=O)(=O)Nc1cccc(OC(C)C)c1 [Example 1.074]
0.2 to 0.75 µM	CCOc1cc(NC(=O)[C@@H](CO)c2ccccc2)ccc1S(=O)(=O)Nc1ccc(C)c(Cl)c1 [Example 1.441]

IC50	Compound
2 to 20 µM	COc1cc(NC(=O)CC2COCCN2)ccc1S(=O)(=O)Nc1cccc(C(F)(F)F)c1 (stereo not shown) [Example 1.240]
0.75 to 2 µM	CCOc1cc(NC(=O)[C@H]2CC[C@](C)(O)CC2)ccc1S(=O)(=O)Nc1cccc(OC(F)(F)F)c1 [Example 1.227]
2 to 20 µM	COc1cc(NC(=O)C2CCCCC2=O)ccc1S(=O)(=O)Nc1cccc(OC(F)(F)F)c1 (stereo not shown) [Example 1.457]
≤ 0.2 µM	CCOc1cc(NC(=O)C(C)(O)c2ccccc2)ccc1S(=O)(=O)Nc1cccc(OC(F)(F)F)c1 (stereo not shown) [Example 1.095]
2 to 20 µM	COc1cc(S(=O)(=O)Nc2cccc(C(F)(F)F)c2)c(C)cc1NC(C)=O [Example 1.354]
≤ 0.2 µM	CCOc1cc(NC(=O)[C@@H](N)C(C)C)ccc1S(=O)(=O)Nc1cccc(OC(F)(F)F)c1 [Example 1.454]
≤ 0.2 µM	CCOc1cc(NC(=O)C(CC2CC2)C(=O)O)ccc1S(=O)(=O)Nc1cccc(OC(F)(F)F)c1 (stereo not shown) [Example 1.013]
≤ 0.2 µM	CCOc1cc(NC(=O)C(O)c2cccc(Cl)c2)ccc1S(=O)(=O)Nc1cccc(OC(F)(F)F)c1 (stereo not shown) [Example 1.528]
0.75 to 2 µM	COc1cc(NC(=O)c2ccnn2C)ccc1S(=O)(=O)Nc1ccc(Cl)c(C(F)(F)F)c1 [Example 1.489]
2 to 20 µM	CCOc1cc(NC(=O)[C@@H](O)C(C)C)ccc1S(=O)(=O)Nc1cccc(C(F)(F)F)c1F [Example 1.075]
≤ 0.2 µM	CCc1cc(NC(=O)[C@@H](CO)C2CC2)ccc1S(=O)(=O)Nc1cccc(OC(F)(F)F)c1 [Example 1.150]
0.75 to 2 µM	COc1cc(NC(=O)c2ccnn2C)ccc1S(=O)(=O)Nc1cccc(OC(C)C)c1 [Example 1.145]
0.75 to 2 µM	COc1cc(NC(=O)c2ccnn2C)ccc1S(=O)(=O)Nc1cc(Cl)cc(C(F)(F)F)c1 [Example 1.011]
0.2 to 0.75 µM	CCOc1cc(NC(=O)CC(O)c2nccs2)ccc1S(=O)(=O)Nc1cccc(OC(F)(F)F)c1 (stereo not shown) [Example 1.485]
0.75 to 2 µM	CCOc1cc(NC(=O)[C@@H](CO)c2ccccc2)ccc1S(=O)(=O)Nc1ccc(C(F)(F)F)cc1 [Example 1.295]
≤ 0.2 µM	CCOc1cc(NC(=O)[C@@H](O)C(C)C)ccc1S(=O)(=O)Nc1ccc(F)c(C2CC2)c1 [Example 1.211]
0.2 to 0.75 µM	CCOc1cc(NC(=O)C(O)c2ccc(C(F)(F)F)cc2)ccc1S(=O)(=O)Nc1cccc(OC(F)(F)F)c1 (stereo not shown) [Example 1.278]
≤ 0.2 µM	CCOc1cc(NC(=O)[C@H]2CC=CC[C@@H]2C(=O)O)ccc1S(=O)(=O)Nc1cccc(OC(F)(F)F)c1 [Example 1.358]
2 to 20 µM	COc1cc(NC(=O)CC2CCOCC2)ccc1S(=O)(=O)Nc1cccc(C(F)(F)F)c1 [Example 1.574]
≤ 0.2 µM	CCOc1cc(NC(=O)C(C)c2ccccc2)ccc1S(=O)(=O)Nc1cccc(OC(F)(F)F)c1 (stereo not shown) [Example 1.064]
0.75 to 2 µM	CCOc1cc(NC(=O)C2(O)CCCCC2)ccc1S(=O)(=O)Nc1cccc(OC(F)(F)F)c1 [Example 1.083]
0.2 to 0.75 µM	COc1cc(NC(=O)[C@H]2CCCC[C@H]2O)ccc1S(=O)(=O)Nc1cccc(OC(F)(F)F)c1 [Example 1.111]
